In ChEMBL document CHEMBL1955720 (Bioorg Med Chem, 2012):

Columns and labels:
Aromatase [1] = target: T1, Aromatase (Homo sapiens, UniProt P11511); test: Inhibition of human aromatase using dibenzylfluorescein substrate at 20 uM after 30 mins by fluorescence assay; conditions: 0.5 h
T1 sequence (P11511 whole entry): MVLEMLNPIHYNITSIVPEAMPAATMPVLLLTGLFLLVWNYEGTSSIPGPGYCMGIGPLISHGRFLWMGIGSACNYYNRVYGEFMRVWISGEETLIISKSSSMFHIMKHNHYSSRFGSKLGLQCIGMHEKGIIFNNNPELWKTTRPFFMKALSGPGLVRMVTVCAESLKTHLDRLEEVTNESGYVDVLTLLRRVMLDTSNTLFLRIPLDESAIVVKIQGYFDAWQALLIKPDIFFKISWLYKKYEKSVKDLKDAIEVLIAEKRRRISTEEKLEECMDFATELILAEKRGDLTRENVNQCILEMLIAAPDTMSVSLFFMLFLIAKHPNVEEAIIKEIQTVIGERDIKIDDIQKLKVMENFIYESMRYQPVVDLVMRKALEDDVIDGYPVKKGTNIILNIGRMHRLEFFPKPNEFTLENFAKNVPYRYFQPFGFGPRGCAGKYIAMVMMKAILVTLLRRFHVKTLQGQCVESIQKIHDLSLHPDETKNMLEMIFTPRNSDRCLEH

[2] = target: NAD(P)H dehydrogenase [quinone] 1 (Mus musculus) (UniProt Q64669); test: Induction of QR1 in mouse Hepa-1c1c7 cells assessed as induction ratio at 50 uM by MTT assay; format: cell-based
NAD(P)H dehydrogenase [quinone] 1 (Mus musculus), sequence (Q64669 whole entry): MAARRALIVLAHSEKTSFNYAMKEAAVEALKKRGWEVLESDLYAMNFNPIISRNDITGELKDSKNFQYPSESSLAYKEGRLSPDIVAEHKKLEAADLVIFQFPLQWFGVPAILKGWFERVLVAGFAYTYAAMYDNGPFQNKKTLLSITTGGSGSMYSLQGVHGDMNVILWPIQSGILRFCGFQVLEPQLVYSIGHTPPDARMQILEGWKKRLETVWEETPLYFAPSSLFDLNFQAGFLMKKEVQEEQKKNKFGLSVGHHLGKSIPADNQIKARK

RAW264.7 [3] = test: Antiinflammatory activity in mouse RAW264.7 cells assessed as inhibition of LPS-induced NO production at 40 uM preincubated for 30 mins measured 24 hrs post LPS challenge by Griess method; format: functional
Aromatase [4] = target: T1, Aromatase
Aromatase [5] = target: T1, Aromatase; remark: listed apart in the source
[6] = target: NAD(P)H dehydrogenase [quinone] 1 (Mus musculus) (UniProt Q64669); test: Induction of QR1 in mouse Hepa-1c1c7 cells assessed as concentration required to double QR1 induction by MTT assay; format: cell-based
HEK293 = test: Inhibition of TNF-alpha activated NF-kappaB expressed in HEK293 cells at 50 uM by luciferase reporter gene assay; format: cell-based
[7] = Inhibition of TNF-alpha activated NF-kappaB expressed in HEK293 cells by luciferase reporter gene assay; format: cell-based
[8] = target: T2, Nitric oxide synthase, inducible (Mus musculus, UniProt P29477)
T2 sequence (P29477 whole entry): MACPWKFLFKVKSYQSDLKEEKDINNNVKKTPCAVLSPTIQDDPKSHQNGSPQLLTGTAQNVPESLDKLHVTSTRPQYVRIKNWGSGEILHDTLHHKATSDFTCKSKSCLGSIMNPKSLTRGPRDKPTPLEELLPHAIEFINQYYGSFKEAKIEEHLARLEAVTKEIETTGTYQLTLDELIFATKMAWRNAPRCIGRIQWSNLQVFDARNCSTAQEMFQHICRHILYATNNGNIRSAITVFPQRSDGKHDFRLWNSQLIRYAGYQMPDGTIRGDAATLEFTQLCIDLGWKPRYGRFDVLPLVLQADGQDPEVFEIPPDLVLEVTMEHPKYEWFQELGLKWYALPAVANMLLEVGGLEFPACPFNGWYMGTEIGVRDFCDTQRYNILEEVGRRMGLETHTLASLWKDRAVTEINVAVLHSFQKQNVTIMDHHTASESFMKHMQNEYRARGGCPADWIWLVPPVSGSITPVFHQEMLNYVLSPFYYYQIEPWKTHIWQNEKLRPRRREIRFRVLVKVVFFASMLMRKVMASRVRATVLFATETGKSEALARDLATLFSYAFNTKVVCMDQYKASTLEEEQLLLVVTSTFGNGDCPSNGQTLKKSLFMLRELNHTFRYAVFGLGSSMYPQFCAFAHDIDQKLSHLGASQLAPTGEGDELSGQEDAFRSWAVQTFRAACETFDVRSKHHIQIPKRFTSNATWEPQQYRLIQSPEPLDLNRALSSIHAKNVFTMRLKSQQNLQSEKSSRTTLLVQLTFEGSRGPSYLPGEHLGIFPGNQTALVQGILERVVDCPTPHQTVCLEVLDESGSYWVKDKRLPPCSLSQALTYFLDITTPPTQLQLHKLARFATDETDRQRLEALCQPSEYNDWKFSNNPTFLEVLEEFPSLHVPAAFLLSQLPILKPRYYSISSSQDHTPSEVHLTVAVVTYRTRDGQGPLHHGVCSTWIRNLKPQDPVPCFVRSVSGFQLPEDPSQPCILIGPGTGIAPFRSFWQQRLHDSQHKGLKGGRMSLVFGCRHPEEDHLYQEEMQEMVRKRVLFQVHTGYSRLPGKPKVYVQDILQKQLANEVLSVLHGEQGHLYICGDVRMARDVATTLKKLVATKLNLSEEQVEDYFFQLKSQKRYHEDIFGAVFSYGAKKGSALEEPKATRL
Description: Inhibition of iNOS in LPS-stimulated mouse RAW264.7 cells after 18 hrs

MCF7 = test: cells; conditions: Homo sapiens
Description: Cytotoxicity against human MCF7 cells by SRB assay

RAW264.7 [9] = test: Antiinflammatory activity in mouse RAW264.7 cells assessed as inhibition of LPS-induced NO production preincubated for 30 mins measured 24 hrs post LPS challenge by Griess method; format: functional, cell-based

SMILES	inhibition (INH) (Aromatase [1])	Ratio [2]	IC50 (Aromatase [4])	Ki (Aromatase [5])	CD [6]	IC50 [7]	IC50 [8]	IC50 (MCF7)	IC50 (RAW264.7 [9])	inhibition at 40 µM (RAW264.7 [3])	inhibition (HEK293)
Brc1ccc(-c2csc(-c3ccncc3)n2)cn1	Active	1.5	2680 nM	285 nM						8.6%	
Brc1ccc(-c2nc(-c3cccnc3)cs2)cc1		4.27	7920 nM	1720 nM	32.8 µM	19900 nM				72.5%	46.8%
Clc1cc(-c2nc(-c3cccnc3)cs2)ccn1										-5.2%	
COc1ccc(-c2csc(-c3cccnc3)n2)cn1										16.3%	
Fc1ccc(-c2nc(-c3cccnc3)cs2)cc1										54.6%	28.8%
COc1ccc(-c2csc(-c3ccncc3)n2)cn1										32.1%	6%
COc1cc(-c2nc(-c3cccnc3)cs2)ccn1		0.7	23 nM	0.65 nM					47800 nM	54.7%	-4.9%

The next lines start with results.

inhibition (INH) (Aromatase [1])	Ratio [2]	IC50 (Aromatase [4])	Ki (Aromatase [5])	CD [6]	IC50 [7]	IC50 [8]	IC50 (MCF7)	IC50 (RAW264.7 [9])	SMILES	inhibition at 40 µM (RAW264.7 [3])	inhibition (HEK293)
				0.08 µM					COc1cccc(-c2nc(-c3cccnc3)ns2)c1		22.4%
					2550 nM				c1cncc(-c2csc(-c3ccncc3)n2)c1		68.8%
	1.1	18000 nM	15000 nM						COc1ccc(-c2nc(-c3cccnc3)cs2)cc1	48.3%	59.9%
Active	1.1	1360 nM	100 nM						CCOc1ccc(-c2csc(-c3ccncc3)n2)cn1	28.1%	-2.4%
				32 µM	10400 nM				Clc1ccc(-c2nc(-c3cccnc3)cs2)cc1	76.3%	54%
	1.45	900 nM	63.4 nM		17700 nM				c1ccc(-c2nc(-c3cccnc3)cs2)cc1	60.1%	50.3%
	0.87	11200 nM	2550 nM						Oc1ccc(-c2nc(-c3cccnc3)cs2)cc1	35.7%	52.9%
						23200 nM	87600 nM		Oc1ccc(/C=C/c2cc(O)cc(O)c2)cc1 [RESVERATROL]		
	9.2	6730 nM	1160 nM	0.06 µM					Brc1cccc(-c2nc(-c3cccnc3)ns2)c1		12.9%
Active	5.1	7410 nM	1480 nM	20.1 µM					Brc1ccc(-c2csc(-c3cccnc3)n2)cn1	22.7%	16.4%
